From patent publication US11696924B2, “Combination therapy using PDK1 and PI3K inhibitors” (MEMORIAL SLOAN-KETTERING CANCER CENTER, priority 2015, dated 2023)
Entries after “also recorded” stand apart in the source; their conditions may differ.

Tests used:
HCC1954 cells [1] = test: cell viability, MTT assay; type: cell-based; conditions: HCC1954 shPDK1, 6 days
Protocol: (§1) Cell viability was measures using the MTT assay. Briefly, 5000 cells were seeded in 96 well plates, treated for 6 days, and assayed using 0,25% MTT (Sigma) and 50 mM sodium succinate (Sigma) solutions during 3 h. Formazan crystals were dissolved with DMSO and absorbance was measured at 570 nm of wavelength.

JIMT1 cells = test: cell viability, MTT assay; type: cell-based; conditions: JIMT1 shPDK1, 6 days
Protocol: as §1

pAKT (S473, T308) = test: Western blot of AKT phosphorylation; type: cell-based
Excerpt: For western blot analysis proteins were extracted in RIPA buffer supplemented with protease and phosphatase inhibitors (Roche). Protein lysates were separated using SDS-PAGE gels and transferred to a PVDF membrane. Then, membranes were probed using specific antibodies. PDK1, pAKT (S473), pAKT (T308), pS6K (T389), pS6 (S240/4), pS6 (235/6), p4EBP1 (S65), PARP, Actin, pRSK (S227), cleaved Caspase 3, pFOXO1/3 (T24/T32), SGK1, SGK2, SGK3, pNDRG1 (T346), NDRG1, Flag, HA, and phospho-RXRXX(S/T) (SEQ ID NO: 1) were from Cell Signaling Technology (CST).

HCC1954 cells [2] = test: apoptosis: PARP cleavage and caspase 3/7 activity; type: cell-based; conditions: HCC1954 shPDK1, BYL719 1 μM, long term
Excerpt: For Caspase 3/7 activity, the Caspase-Glo® 3/7 Assay kit from Promega was used following manufacturer's instructions. The caspase inhibitor zVAD-fmk was used to inhibit apoptosis in cells and was also obtained from Promega.
Then, membranes were probed using specific antibodies.

HCC1954 xenografts = test: HCC1954 in vivo xenograft; parameters: species or system mice
Protocol: Animals were maintained and treated in accordance with Institutional Guidelines of Memorial Sloan Kettering Cancer Center (Protocol number 12-10-019). 5×10^6 cells in 1:1 PBS/Matrigel (Corning) were injected subcutaneously into six-week-old female athymic Foxn1^nu nude mice.
When tumors reached a volume of ˜150 mm^3 mice were randomized, treated, and tumors were measured twice a week during a month. At least 10 tumors per group were used in all the studies. […] Tumors were harvested at the end of the experiment three hours after the last dosage, fixed in 4% formaldehyde in PBS, and paraffin-embedded. […] Primary staining was followed by 60 minutes incubation with biotinylated goat anti-rabbit IgG (Vector labs) 1:200. Blocker D, Streptavidin-HRP and DAB detection kit (Ventana Medical Systems) were used according to the manufacturer instructions.

AKT = test: kinase activity of immunoprecipitated endogenous AKT; type: cell-based; conditions: HCC1954, 4 hr, Crosstide substrate
Protocol: In vitro kinase activity of endogenous SGK1 and AKT was assayed by measuring [γ-32P] ATP incorporation into Crosstide substrate peptide [[…]] […] SGK1 and AKT were immunoprecipitated from HCC1954 cell line 4 hr after treatment. Immunoprecipitates were washed once with lysis buffer containing 500 mM NaCl, once with lysis buffer, and twice with Buffer A (50 mM Tris pH 7.5, 0.1 mM EGTA). Reactions were carried out in 40 μL total volume containing 0.1 mM [γ-32P] ATP (400-1000 cpm/pmol), 10 mM magnesium acetate, and 30 μM Crosstide peptide. Reactions were terminated by adding 10 μL […] EDTA. 40 μL of the reaction mix was spotted on P81 paper, which was immediately immersed into 50 mM ortophosphoric acid and washed several times. Papers were rinsed in acetone and air dried. Radioactivity was quantified by Cerenkov counting. One unit of enzyme activity was defined as the amount of enzyme that catalyzes incorporation of 1 nmol of [γ-32P] ATP into the substrate over one minute.

endogenous AKT kinase activity (AKT): completely abrogated
SMILES: Cc1nc(NC(=O)N2CCC[C@H]2C(N)=O)sc1-c1ccnc(C(C)(C)C(F)(F)F)c1 [BYL719]
cell viability in PDK1 knockdown cells (HCC1954 cells [1]): decrease cell viability
cell viability in PDK1 knockdown cells (JIMT1 cells): decrease cell viability
AKT phosphorylation / activity (pAKT (S473, T308); BYL719-resistant cells (HCC1954, JIMT1), 1 μM, 4 h): reduced AKT phosphorylation (S473 and T308); also recorded: effectively suppressed AKT activity
pAKT (S473) levels fully decreased (pAKT (S473, T308); CAL-148 and CAL-51 cells, 1 μM, 4 h): fully decreases pAKT levels
AKT phosphorylation (pAKT (S473, T308); HCT116 PDPK1+/+ and PDPK1−/− cells): decreases AKT phosphorylation
apoptosis markers in PDK1 knockdown cells (HCC1954 cells [2]): induced PARP cleavage (FIG. 2C) and increased caspase 3/7 activity
S6 phosphorylation (S240/4) and 4EBP1 (T37/46) in tumors, IHC (HCC1954 xenografts; HCC1954 shGFP vs shPDK1 xenografts): inhibited only in shPDK1 xenografts
tumor growth (HCC1954 xenografts; HCC1954 shGFP xenografts): modest delay in tumor growth
tumor growth (HCC1954 xenografts; HCC1954 shPDK1 xenografts): durable tumor shrinkage
tumor growth (HCC1954 xenografts; HCC1954 xenografts, BYL719 25 mg/kg daily p.o., GSK2334470 100 mg/kg i.p. 3 times/week, SGK1-inh 50 mg/kg daily p.o.): some antitumor activity
pAKT (S473) in tumors, IHC (HCC1954 xenografts; tumors collected at the end of the experiment): effectively suppressed AKT phosphorylation (S473); also recorded: sufficient to suppress pAKT
